Source: patent US20150111896A1, “HEMATOPOIETIC PROTECTION AGAINST CHEMOTHERAPEUTIC COMPOUNDS USING SELECTIVE CYCLIN-DEPENDENT KINASE 4/6 INHIBITORS” (The University of North Carolina at Chapel Hill, priority 2008, published 2015)
“Also recorded” adds a separate entry of the source.

Key:
[1] = system: human RB-null melanoma cells (A2058); assay: Cell proliferation assay (WST-1 or CellTiter-Glo) after chemotherapeutic; settings: for protection from chemotherapy-induced cytotoxicity (cell proliferation assays): A2058 (CDK4/6-independent), pretreatment prior to carboplatin, etoposide or doxorubicin; for chemoprotective effects against doxorubicin (cell viability, CellTiter-Glo): A2058, 16 hours pretreatment, DOX 370 nM 8 hours, viability after 7 days
Experimental: (§4) In some embodiments, cell viability is assessed by performing a assay using 2-(4-iodophenyl)-3-(4-nitrophenyl)-5-(2,4-disulfophenyl)-2H-tetrazolium monosodium salt (WST-1), such as described further hereinbelow. In the WST-1 assay, WST-1 is cleaved by a mitochondrial reductase present in viable cells to form a colored product (i.e., formazan) that can be detected by measuring absorbance at a particular wavelength (e.g., 420-480 nm). […] The CellTiter-Glo® assay (CTG assay; Promega, Madison, Wis., United States of America) measures cell viability by measuring ATP concentration in cell lysate.
(§5) Cell lines: Telomerized human diploid fibroblast (tHDF) cells (HS68) were cultured in Dulbecco's Modified Eagle Medium (DMEM) +10% fetal bovine serum (FBS) with any additional compounds. The same conditions were used for A2058 and WM2664, human melanoma cell lines with known RB-pathway mutations: A2058 is RB-null, whereas WM2664 lacks INK4a/ARF. Thus, A2058 cells are CDK4/6-independent, while WM2664 cells are CDK4/6-dependent. Cells were cultured in DMEM+10% FBS.
(§6) Cell proliferation assays: Cell proliferation assays were performed by seeding 1×10^3 cells per well in a 96-well tissue culture plate in 100 μL of growth medium. Cells were treated as indicated with compound from Table 1 and doxorubicin, etoposide or carboplatin. Following treatment, cells were allowed to recover for 7 days in normal growth medium. At the end of the recovery period, cell number was quantified using the VVST-1 cell proliferation assay (TaKaRa Bio USA, Madison, Wis., United States of America) or the CellTiter-Glo® assay (CTG; Promega, Madison, Wis., United States of America). Data is presented as absorbance at 450 nm for the WST assays or Relative Light Units (RLU) for the CTG assays.

[2] = system: telomerized human diploid fibroblast (tHDF) cells (HS68); assay: as above; settings: for protection from chemotherapy-induced cytotoxicity (cell proliferation assays): HS68 (CDK4/6-dependent), pretreatment prior to carboplatin, etoposide or doxorubicin; for chemoprotective effects against doxorubicin (cell viability, CellTiter-Glo) / protection from doxorubicin-induced cytotoxicity (cell viability, WST-1 assay): HS68; for chemoprotective effects against doxorubicin (cell viability, CellTiter-Glo): 16 hours pretreatment, DOX 370 nM 8 hours, viability after 7 days; for protection from doxorubicin-induced cytotoxicity (cell viability, WST-1 assay): absorbance at 450 nm, 7 days recovery
Experimental: as §4, §5, §6

[3] = system: human melanoma cells lacking INK4a/ARF (WM2664); assay: as above; settings: for protection from chemotherapy-induced cytotoxicity (cell proliferation assays): WM2664 (CDK4/6-dependent), pretreatment prior to carboplatin, etoposide or doxorubicin; for chemoprotective effects against doxorubicin (cell viability, CellTiter-Glo) / protection from doxorubicin-induced cytotoxicity (cell viability, WST-1 assay): WM2664; for chemoprotective effects against doxorubicin (cell viability, CellTiter-Glo): 16 hours pretreatment, DOX 122 nM 8 hours, viability after 7 days; for protection from doxorubicin-induced cytotoxicity (cell viability, WST-1 assay): absorbance at 450 nm, 7 days recovery
Experimental: as §4, §5, §6

[4] = system: human melanoma cells lacking INK4a/ARF (WM2664); assay: Cell cycle analysis (BrdU and propidium iodide, flow cytometry); type: cell-based; settings: WM2664 (CDK4/6-dependent), 24 hours treatment
Experimental: (§1) Cells were cultured in DMEM+10% FBS.
(§2) Cell cycle analysis: Cell cycle analysis was performed using BrdU and propidium iodide (both from BD Biosciences Pharmigen, San Jose, Calif., United States of America) following the manufacturer's protocol. Cells were treated for 24 hours with a test compound at a desired dose prior to 15 minutes BrdU pulse, cell harvesting, fixation, staining, and analysis by flow cytometry.
(§3) Histograms of dose-response curves of PD332991 and 2BrIC in HS68, WM2664 and A2058 cells were analyzed using Mod-Fit™ software from Verity Software House (Topsham, Me., United States of America).

[5] = system: human RB-null melanoma cells (A2058); assay: as above; type: cell-based; settings: A2058 (RB-null, CDK4/6-independent), 24 hours treatment
Experimental: as §1, §2, §3

[6] = system: telomerized human diploid fibroblast (tHDF) cells (HS68); assay: as above; type: cell-based; settings: HS68 (CDK4/6-dependent), 24 hours treatment
Experimental: as §1, §2, §3

Row | Structure (SMILES) | protection from chemotherapy-induced cytotoxicity (cell proliferation assays) [1] | chemoprotective effects against doxorubicin (cell viability, CellTiter-Glo) [1] | protection from chemotherapy-induced cytotoxicity (cell proliferation assays) [2] | chemoprotective effects against doxorubicin (cell viability, CellTiter-Glo) [2] | protection from chemotherapy-induced cytotoxicity (cell proliferation assays) [3] | chemoprotective effects against doxorubicin (cell viability, CellTiter-Glo) [3] | cell cycle effect [4] | cell cycle effect [5] | cell cycle effect [6] | protection from doxorubicin-induced cytotoxicity (cell viability, WST-1 assay) [2] | protection from doxorubicin-induced cytotoxicity (cell viability, WST-1 assay) [3]
1 | COc1ccc(F)c(F)c1C(=O)c1cnc(NC2CCN(S(C)(=O)=O)CC2)nc1N [Compound 7] | failed to protect | absence of chemoprotective effects | failed to protect | absence of chemoprotective effects | failed to protect | absence of chemoprotective effects | did not induce a clean G1 arrest; also recorded: does not induce G1 arrest | did not induce a clean G1 arrest | did not induce a clean G1 arrest; also recorded: does not induce G1 arrest |  | 
2 | CN1CCN(c2ccc(Nc3ncc4cnn(C5CCCCC5)c4n3)cc2)CC1 [Compound 8] |  |  | failed to protect |  | failed to protect |  | did not induce a clean G1 arrest | did not induce a clean G1 arrest | did not induce a clean G1 arrest | inability | inability
3 | CN1CCN(Cc2ccc(Nc3ncc4cnn(C5CCCCC5)c4n3)cc2)CC1 [Compound 9] |  |  | failed to protect |  | failed to protect |  | did not induce a clean G1 arrest | did not induce a clean G1 arrest | did not induce a clean G1 arrest | inability | inability
4 | CN1CCN(C(=O)c2ccc(Nc3ncc4cnn(C5CCCCC5)c4n3)cc2)CC1 [Compound 11] |  |  | failed to protect |  | failed to protect |  | did not induce a clean G1 arrest | did not induce a clean G1 arrest | did not induce a clean G1 arrest | inability | inability
5 | O=c1c(-c2ccc(O)cc2)coc2cc(O)cc(O)c12 [Genistein] | failed to protect | absence of chemoprotective effects | failed to protect | absence of chemoprotective effects | failed to protect | absence of chemoprotective effects | did not induce a clean G1 arrest | did not induce a clean G1 arrest | did not induce a clean G1 arrest |  | 
6 | CN1CC[C@H](c2c(O)cc(O)c3c(=O)cc(-c4ccccc4Cl)oc23)[C@H](O)C1 [flavopiridol] | failed to protect | absence of chemoprotective effects | failed to protect | absence of chemoprotective effects | failed to protect | absence of chemoprotective effects | did not induce a clean G1 arrest; also recorded: does not induce G1 arrest | did not induce a clean G1 arrest | did not induce a clean G1 arrest; also recorded: does not induce G1 arrest |  | 
